The test system of one series is HSV-2. Kind of series: In vivo mouse bioassay: intravaginal HSV-2 infection, topical treatment. Further details: species or system HSV-2 strain 333 in female Swiss Webster mice; key to Max. Lesion Score: 0: no clinical signs of vaginal infection; ±: slight perivaginal redness; perivaginal redness and swelling of 1-2 mm; perivaginal redness and swelling of 2-3 mm; perivaginal and perianal redness and swelling of 3-4 mm; perivaginal and perianal redness and swelling of 4 mm or more, with exudate. The settings on record: for # Infected, Day 14 / # of Deaths, Day 14: 10 animals/group.

In a further series the test system is herpes virus type 2. Kind of series: Guinea pig bioassay: intravaginal HSV-2 infection, topical treatment. In kind it is in vivo. Further details: key to MVL Score Day 5 / MVL Score Day 6 / MVL Score Day 7 / MVL Score Day: lesion severity scored on 0 to 4 scale. The procedure: In both studies, DHA was compared with ACV in a controlled study for effectiveness in reducing the occurrence and the severity of lesions resulting from infection by HSV-2 and in reducing mortality resulting from the virus infection.
Using substantially the procedures of Pancic et al., loc. cit., the topical activity of DHA, a representative and preferred virucide for use in the present method, was evaluated in mice and in guinea pigs. Both evaluations included comparative testing against ACV and the mouse tests included a comparison of two different vehicles.
A blind comparative test was carried out on guinea pigs using coded substances labeled A through D. The testers were told only that one of the four substances was ACV, that the other three coded samples were the same material, in concentrations of 0.1, 1.0 and 10 mg/ml, and that all four samples were formulated in a polyethylene glycol 1000 (PEG-1000) vehicle. A separate sample of the PEG-1000 was also submitted to serve as a placebo for treating virus control animals. The materials and experimental protocol is shown below.
Animals. Female Hartley strain albino guinea pigs weighing about 450-500 g were used. The animals were quarantined 24 hr prior to use in this study, and maintained 5 to a 32"×32"×9" stainless steel cage on Wayne guinea pig diet and water ad libitum.
Virus. Strain E194 of herpes virus type 2 was used. […] The virus was held at -90° C. until used.
(§1) Drugs. The substances tested consisted of four bottles labelled "A", "B", "C", and "D" with no identifying key. The samples were: A, 0.1 mg/ml DHA (0.003 mmol/ml); B, 5% w/w ACV (0.22 mmol/ml); C, 1 mg/ml DHA (0.03 mmol/ml); and D, 10 mg/ml DHA ([…]). […] All were treated as light-sensitive compounds.
Experimental Protocol. The guinea pigs were infected by applying a virus-soaked swab intravaginally, with agitation, for 20 seconds. […] Treatment began 20 hr later, with the compound or placebo applied topically intravaginally, perivaginally, and perianally using cotton swabs soaked in the respective substance. Treatment continued three times daily (8 a.m., noon, 4 p.m.) for 7 days. Ten infected animals were used for each coded substance, with twenty used for virus controls. Five sham-infected animals were concomitantly treated with each coded substance to serve as toxicity controls. Two guinea pigs were held separately to serve as normal untreated controls.
On days 5 through 8 post-virus inoculation, the genital area was carefully examined and signs of irritation in the toxicity controls and lesion severity in injected animals was scored on a 0 to 4 scale using the same scale as in the mouse bioassay. The results were scored as average daily lesion (ADL) scores for each group, and as mean vaginal lesion (MVL) scores, calculated as the mean of the ADL scores for days 5-8. The maximum mean score for the toxicity control animals was also determined.
On day 6 prior to the 8 a.m. treatment, intravaginal and perivaginal areas of each infected guinea pig were uniformly swabbed with sterile cotton swabs. The swab for each animal was placed in 1.0 ml of sterile Eagles minimum essential medium and immediately frozen at -90° C.; several days later all were thawed and each swab-containing sample vortexed for 15 seconds and then the sample was diluted through a series of 10-fold dilutions in sterile medium. Each dilution was assayed for virus in triplicate by adding 0.1 ml to an established monolayer of MA-104 cells in 96-well disposable plastic microplates. The plates were sealed, incubated at 72 hr at 37° C., and virus-induced cytopathic effect noted microscopically.
Data Analysis. Increases in survivors were analyzed using chi square analysis with Yate's correction. Mean survival times (MST) of animals dying on or before […] were determined for each group, and evaluated using the t test.

A short description of series [1]: Guinea pig toxicity controls (sham-infected, topical treatment). It counts as in vivo, guinea pigs. The settings on record: B: 5% w/w ACV in PEG-1000. The protocol: as §1
Experimental Protocol. The guinea pigs were infected by applying a virus-soaked swab intravaginally, with agitation, for 20 seconds. Toxicity control animals were similar pretreated using swabs soaked in sterile Puck's balanced salt solution. Treatment began 20 hr later, with the compound or placebo applied topically intravaginally, perivaginally, and perianally using cotton swabs soaked in the respective substance. Treatment continued three times daily (8 a.m., noon, 4 p.m.) for 7 days. Ten infected animals were used for each coded substance, with twenty used for virus controls. Five sham-infected animals were concomitantly treated with each coded substance to serve as toxicity controls. Two guinea pigs were held separately to serve as normal untreated controls.
Each animal was observed daily for survival for a total of 28 days. On days 5 through 8 post-virus inoculation, the genital area was carefully examined and signs of irritation in the toxicity controls and lesion severity in injected animals was scored on a 0 to 4 scale using the same scale as in the mouse bioassay. The results were scored as average daily lesion (ADL) scores for each group, and as mean vaginal lesion (MVL) scores, calculated as the mean of the ADL scores for days 5-8. The maximum mean score for the toxicity control animals was also determined.

The test system of another series is PR4 bacteriophage. As to conditions: PR4 bacteriophage in vitro; cited from earlier work.
In series [2] the test system is gram-positive and gram-negative microorganisms. The settings on record: cited from earlier work.
In series [3] the test system is herpes simplex virus type 2 (HSV-2). Put plainly: In vitro HSV-2 bioassay: virucidal plaque assay (HEP-2 cells). As to conditions: for plaque count: TNTC = too numerous to count. In kind it is cell-based, HSV-2 strain 333. The protocol: Evidence of the efficacy of the virucides of the invention in vitro has been obtained from bioassay using HSV-2, using a standard assay procedure. Serial dilutions of the compounds were tested for their ability to prevent plaque formation by a stock virus suspension. Reduction of plaque titer by test compounds as compared to mock treated controls was indicative of virucidal activity. […] These represent the upper limit for the drug concentration, since dilutions were not carried beyond 1:6400 and in some cases 1:12800.
Cell Culture. Cell cultures used for the propagation and titration of HSV-2 were the human diploid lung embryonic line MRC-5 and the human malignant epitheloid cell line HEP-2 respectively. Stock monolayer cultures of both cell lines were propagated in Dulbecco's Modified Eagle's medium (DME) supplemented with 10% (V/V) calf serum. Spinner cultures for mass production of HEP-2 cells were grown in Joklik's medium supplemented with 10% (V/V) calf serum and 1% (W/V) pluronic acid. Monolayer cultures of HEP-2 cells for plaque or virucidal assay were seeded into 60 mm dishes in DME supplemented with 10% calf serum and antibiotics. Stock cultures were maintained in antibiotic free medium.
Herpes simplex virus, type 2 (HSV-2) strain 333 was obtained from Dr. John Hughes of the Dept. of Medical Microbiology, College of Medicine, The Ohio State University. Stocks of HSV-2 were prepared in the human diploid embryonic lung cell line, MRC-5. Confluent MRC-5 monolayer cultures in T-75 plastic flasks were washed one time with Hank's and Balanced Salt solution (HBSS) and infected with 0.5 ml of HSV-2, strain 333 stock. Virus was adsorbed for 1 hour at 37° C. Then the culture was refed with 15 ml of DME supplemented with 1% (V/V) calf serum. Virus was harvested 48 hours later when cytopathology was complete. Cultures were frozen and thawed rapidly three times to release cell associated virus, clarified by centrifugation at 10,000×g for 15 minutes at 4° C., aliquoted into 5 ml lots and frozen at -70° C. One lot was taken for virus titration.
HSV-2 was titrated by plaque assay in HEP-2 cells under a semi-solid methyl cellulose overlay. Tenfold serial dilutions of virus were prepared in HBSS and 0.3 ml aliquots of each dilution inoculated onto triplicate HEP-2 cell monolayers in 60 mm plastic petri dishes. Adsorption of virus was for 1 hour at 37° C. Plates were then overlayed with 5 ml of a 1:1 mixture of 2×DME supplemented with 2% (V/V) calf serum and 3% (W/V) methyl cellulose to give a final 1×DME supplemented with 1% calf serum and 1.5% methylcellulose. Infected plates were incubated at 37° C. in a humidified 10% CO2 atmosphere for 48 hours. Virus plaques were visualized by staining with crystal violet and counted under a dissecting microscope. Virus titers were calculated from the plaque numbers by averaging the plaque count and multiplying by 3.3 (0.3 ml plates).
The following procedure was employed to assay virucidal activity in various test samples. Compounds were received as a solution in DMSO and were serially diluted in HBSS as described for each experiment. For the test, 1 ml of each dilution was mixed with 1 ml of a stock virus suspension diluted to approximately 9×10^3 plaque forming units (P.F.U.)/ml. This test mixture was incubated at 25° C. for 30 minutes, then inoculated onto a cell culture (HEP-2) for plaque assay as described previously. Mock treated (virus plus HBSS) controls were included with each test. Any reduction of plaque titer by test compounds as compared to the mock treated control was indicative of virucidal activity.
Samples from RP-HPLC fractionation of the CLOH, produced according to Example 2, as well as purified samples of palmitic, myristic and oleic acids and Vitamin D2, were tested for HSV-2 bioactivity. […] Pure oleic acid was not active in this assay, nor were palmitic and myristic acids and Vitamin D2. […]

Another series relates to bacteriophage. The settings on record: cited from earlier work.
Another series concerns virus. As to conditions: cited from earlier work.

Data on five compounds can be found in US4513008A, “Virucidal compositions and therapy” (The Vinoxen Company, Inc., priority 1982, dated 1985).

The structures appear in SMILES notation.

In the case of `Nc1nc2c(ncn2COCCO)c(=O)[nH]1` [Acyclovir, 9-(2-hydroxyethoxymethyl)guanine, reference compound], in the series on HSV-2 (ACV 5% wt/vol in DMSO), the “Max. Lesion Score” value is recorded as “±”; the “# Infected, Day 14” value is listed as 3; the “# of Deaths, Day 14” value turned out to be 0. For the same compound, in the series with HSV-2 (ACV 5% wt/vol in PEG), the “Max. Lesion Score” value is reported as “±”; the “# Infected, Day 14” value is listed as 4; the “# of Deaths, Day 14” value is 0. Further, in the series on HSV-2 (DMSO & Acyclovir (5%)), the “% Mortality” value was 0%, the “Day of Maximum % Morbidity” value was 7 days, the “Maximum % Morbidity” value is listed as 30% and the “Mean Day of Death” value is over 14 days. For the same compound, in the series with HSV-2 (Ointment & Acyclovir (5%)), the “% Mortality” value is 0%, the “Day of Maximum % Morbidity” value was 7 days, the “Maximum % Morbidity” value is on record as 40% and the “Mean Day of Death” value is over 14 days. The survival rate in the series with HSV-2 (both carrier vehicles, observed 14 day period) is 100%. For the same compound, the “efficacy in mice in words” value with HSV-2 (topical, HSV-2 infected mice) is given as “effective in minimizing the clinical signs of infection in either carrier vehicle”. For the same compound, in the series with herpes virus type 2 (B: 5% w/w ACV in PEG-1000), the “MVL Score Day 5” value is 1.8 and the “MVL Score Day 7” value worked out at 3.4. In the series with herpes virus type 2 (B: 5% w/w ACV in PEG-1000, 0 to 4 scale), the “MVL Scores Days 5-8” value is listed as 2.8. Besides, the “Infected, Treated Surv/Total” value in the series on herpes virus type 2 (B: 5% w/w ACV in PEG-1000, 28 days) is reported as 5/10. In the series with herpes virus type 2 (B: 5% w/w ACV in PEG-1000, P < 0.05), the “MVL Score Day 6” value is 2.3. For the same compound, the “MVL Score Day” value in the series with herpes virus type 2 (B: 5% w/w ACV in PEG-1000, last day) is reported as 3.3. In addition, the “reduction in lesion scores, in words” value in the series with herpes virus type 2 (guinea pigs, topical) was “neither ACV nor the lowest dosage of DHA were able to achieve a statistically significant reduction in lesion scores”. In addition, the “Toxicity Controls Surv/Total” value in series [1] was 5/5. In addition, the “Toxicity Controls Max. Irrit. Score” value in series [1] (0 to 4 scale) came to 0.0.

With `CCCCC/C=C\C/C=C\C/C=C\C/C=C\CCCC(=O)O` [Arachidonic acid], the “inhibition of viral replication, in words” value in the series with PR4 bacteriophage is recorded as “moderately effective, but less effective than linolenic acid”. Further, the “inhibition of growth of microorganisms, in words” value in series [2] is given as “not inhibitory at the concentrations tested”.

As to `CCCCCCCC/C=C\CCCCCCCC(=O)O` [Oleic acid, reference compound], the plaque count in series [3] (Table 1, dilution 1:10) is on record as 36; in series [3] (Table 1, dilution 1:100), “TNTC”; in series [3] (Table 1, dilution 1:200) it was “TNTC”; in series [3] (Table 1, dilution 1:400) it was “TNTC”; in series [3] (Table 1, dilution 1:800), “TNTC”; in series [3] (Table 1, dilution 1:1600), “TNTC”. In addition, the plaque count entry in series [3] (Table 1, dilution 1:3200) was “TNTC”; in series [3] (Table 1, dilution 1:6400) it was “TNTC”. Moreover, in series [3] (Table 1, dilution 1:10, controls 2.6 × 10^4 (a), 1.3 × 10^4 (b)), the titer is reported as 1.2 × 10^2. For the same compound, in series [3] (in vitro bioassay), the “virucidal activity against HSV-2 in words” value is given as “not active”. Further, the “inhibition of viral replication, in words” value with PR4 bacteriophage was “most effective”. Also, the “inactivation of virus (virucidal activity), in words” value in the series on bacteriophage was “most effective fatty acid tested”.

For `CCCCCC=CCC=CCC=CCCCCCO` [gamma-linolenyl alcohol, 6,9,12-octadecatrien-1-ol], in the series with virus, the “antiviral activity in vitro, in words” value is “most active”.

Turning to `CCCCCC/C=C\CCCCCCCC(=O)O` [palmitoleic acid], the “inhibition of viral replication, in words” value with PR4 bacteriophage is on record as “most effective”.
